# Experimental data: patent publication US10011573B2, “Human androgen receptor DNA-binding domain (DBD) compounds as therapeutics and methods for their use” (The University of British Columbia, priority 2014, dated 2018)
# What was measured:
# PARP = assay: Western blots against PARP / cleaved PARP (apoptosis); format: cell-based, human; conditions: PC3 luciferase assay lysates
# Description: Cell lysates (40 μl) from luciferase assays (96-well plate) were separated on a 10% SDS-polyacrylamide mini gel. Protein was transferred to methanol-charged PVDF membranes and probed with anti-AR441 (mouse, Sigma™) monoclonal primary antibody. Blots were also probed with polyclonal anti-actin (rabbit, Sigma™) to show equal loading and polyclonal anti-PARP/anti-cleaved PARP (rabbit, Sigma™) to test for induction of apoptosis. Lysates from CWR-R1 cells were additionally probed with polyclonal anti-FKBP5 (rabbit, Sigma™) following 2 days of incubation with compounds.
# AR Y594A mutant = AR Y594A mutant (Homo sapiens, UniProt P10275, Y594A); assay: ARR3tk-luciferase reporter assay in PC3 cells, AR Y594A
# Description: (§1) Cells were then treated with compounds at various concentrations and 0.1 nMR1881 (in 100% ethanol) for 24 h. […] Cell lysis was carried out with 60 μl of 1X passive lysis buffer/well (Promega™)
# (§2) 20 μl of cell lysate from each well were mixed with 50 μl of luciferase assay reagent (Promega™), and luminescence was recorded on a TECAN™ M200pro plate reader. Luciferase assays with splice variant AR were performed the same way but with only 5 ng of pcDNA3.1 AR-V7 (to limit the high level of AR-V7 expression) and no R1881.
# AR-V7Y594D = AR-V7Y594D (Homo sapiens, UniProt P10275, Y594D); assay: ARR3tk-luciferase reporter assay in PC3 cells, AR-V7 Y594D
# Description: as §1, §2
# androgen receptor (AR) = target: T1, androgen receptor (AR) (Homo sapiens, UniProt P10275, T878A); assay: eGFP cellular AR transcription assay (LNCaP eGFP cells, LN-ARR2PB-eGFP)
# T1 sequence (P10275 1-920 T878A): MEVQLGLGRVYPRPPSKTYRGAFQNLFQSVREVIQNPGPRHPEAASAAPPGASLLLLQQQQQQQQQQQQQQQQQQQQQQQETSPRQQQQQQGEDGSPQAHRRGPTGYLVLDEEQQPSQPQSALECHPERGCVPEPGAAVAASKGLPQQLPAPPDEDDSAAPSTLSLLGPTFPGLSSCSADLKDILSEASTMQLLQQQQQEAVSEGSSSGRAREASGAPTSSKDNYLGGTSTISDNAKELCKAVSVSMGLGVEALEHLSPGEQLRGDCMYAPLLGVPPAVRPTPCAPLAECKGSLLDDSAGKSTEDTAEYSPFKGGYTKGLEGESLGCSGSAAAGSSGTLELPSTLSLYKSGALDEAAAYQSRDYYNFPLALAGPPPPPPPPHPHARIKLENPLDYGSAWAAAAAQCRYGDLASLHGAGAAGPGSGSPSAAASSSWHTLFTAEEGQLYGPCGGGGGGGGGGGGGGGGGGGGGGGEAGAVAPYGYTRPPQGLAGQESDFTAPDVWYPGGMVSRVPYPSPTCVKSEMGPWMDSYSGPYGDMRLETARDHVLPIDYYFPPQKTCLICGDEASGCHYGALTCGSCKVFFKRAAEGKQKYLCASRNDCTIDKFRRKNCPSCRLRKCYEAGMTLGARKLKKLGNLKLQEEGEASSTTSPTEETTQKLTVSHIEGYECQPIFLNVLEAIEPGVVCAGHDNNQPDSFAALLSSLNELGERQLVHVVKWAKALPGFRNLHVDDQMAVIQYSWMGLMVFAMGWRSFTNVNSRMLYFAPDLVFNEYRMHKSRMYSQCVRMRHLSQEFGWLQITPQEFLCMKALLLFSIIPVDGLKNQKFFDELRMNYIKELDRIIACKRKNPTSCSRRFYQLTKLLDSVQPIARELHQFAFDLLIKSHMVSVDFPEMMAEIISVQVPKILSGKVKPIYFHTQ
# AR-DBD+hinge / ARE dsDNA = target: T2, AR-DBD+hinge / ARE dsDNA (Homo sapiens, UniProt P10275); assay: Biolayer interferometry analysis of dsDNA (ARE) association with biotinylated AR-DBD+hinge; format: binding; set-up: His tag (C); made in house; host or cells: E. coli BL21 co-transformed with biotin ligase vector (pBir-Acm); conditions: 50 μM compound
# T2 sequence (P10275 558-689): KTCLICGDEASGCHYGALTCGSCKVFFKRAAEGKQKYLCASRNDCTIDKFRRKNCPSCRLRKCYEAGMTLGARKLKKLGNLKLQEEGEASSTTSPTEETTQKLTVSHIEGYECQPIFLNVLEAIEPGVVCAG
# Description: The plasmid encoding the AR-DBD+hinge was transformed into BL21 (DE3). BL21 cells designated for expression of biotin-labeled AR-DBD+hinge were co-transformed with the Pan4 AR-DBD+hinge (ampicillin selection) and biotin ligase expression vectors (pBir-Acm, chloramphenicol selection). Single colonies were grown in 2 liters of LB media supplemented with 50 μg/ml ampicillin and 35 μg/ml chloramphenicol (where appropriate) to A600 nm=0.6 before induction with 0.1 mM isopropyl β-D-1-thiogalactopyranoside for 3 h at 37° C. Cultures expressing the AR-DBD with the biotinylation sequence were simultaneously supplemented with 0.150 mM biotin during the induction step. Cell pellets were resuspended in ˜20 ml of 50 mM Tris-HCl, pH 8.0, 300 mM NaCl, 5% glycerol (Buffer A) supplemented with 10 mM imidazole and incubated with 0.1 mg/ml chicken egg white lysozyme (Sigma™) and 0.1 mM PMSF protease inhibitor for 30 min on ice. Cell lysis was achieved by sonication, followed by centrifugation at 13,000×g for 30 min at 4° C. The supernatant was rotated with 2 ml of nickel-agarose beads (GE Healthcare™) for 1 h at 4° C. and then directly loaded onto a Poly-Prep 10-ml gravity chromatography column (Bio-Rad™). Washing was performed with 2×4 ml of Buffer A supplemented with 20 mM imidazole. Pure proteins were eluted in 500-μl fractions with 2 ml of Buffer A containing 250 mM imidazole.
# Biolayer interferometry analysis on a ForteBio Octet Red™ instrument was carried out using biotinylated AR-DBD+hinge in Buffer A with 5% DMSO throughout all experiments. The DBD (0.1 mg/ml) was loaded onto streptavidin sensors in 200 μl of buffer for 30 min, followed by blocking of free streptavidin sites with biocytin (10 μg/ml) for 10 min. DBD-loaded sensors were then pre-equilibrated in 50 μM compound or 5% DMSO alone for 100 s in the same buffer. The kinetics of DNA association were monitored by moving sensors into wells containing dsDNA (ARE, 3 μM) supplemented with 50 μM compound for 120 s. This was followed by dissociation in buffer+compound, but lacking DNA, for an additional 120 s. Biocytin-blocked control sensors (no AR-DBD) were subjected to the same experimental conditions, and nonspecific interactions with dsDNA were subtracted from each curve.
# [1] = eGFP IC50, LNCaP eGFP cells, 0.1 nM R1881
# AR-V7Y594D, sequence (P10275 1-644 isoform P10275-3 Y594D): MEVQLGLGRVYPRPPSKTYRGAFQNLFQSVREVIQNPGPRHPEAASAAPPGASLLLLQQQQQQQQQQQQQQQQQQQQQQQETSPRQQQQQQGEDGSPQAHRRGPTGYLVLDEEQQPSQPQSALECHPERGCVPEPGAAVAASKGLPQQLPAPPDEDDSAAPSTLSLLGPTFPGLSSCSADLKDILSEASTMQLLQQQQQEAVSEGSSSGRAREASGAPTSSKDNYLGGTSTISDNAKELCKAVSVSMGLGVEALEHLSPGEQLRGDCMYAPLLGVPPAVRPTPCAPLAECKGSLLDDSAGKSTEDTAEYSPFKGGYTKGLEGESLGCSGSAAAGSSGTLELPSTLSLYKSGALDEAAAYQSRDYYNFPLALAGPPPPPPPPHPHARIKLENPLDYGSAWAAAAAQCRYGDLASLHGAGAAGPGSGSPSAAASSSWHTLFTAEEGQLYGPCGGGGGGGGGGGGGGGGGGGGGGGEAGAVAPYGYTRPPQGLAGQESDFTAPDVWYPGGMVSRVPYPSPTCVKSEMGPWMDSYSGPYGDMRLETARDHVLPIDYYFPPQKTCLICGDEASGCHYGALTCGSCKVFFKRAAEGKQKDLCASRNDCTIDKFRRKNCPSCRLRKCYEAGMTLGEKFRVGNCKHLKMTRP
# AR Y594A mutant, sequence (P10275 whole entry Y594A): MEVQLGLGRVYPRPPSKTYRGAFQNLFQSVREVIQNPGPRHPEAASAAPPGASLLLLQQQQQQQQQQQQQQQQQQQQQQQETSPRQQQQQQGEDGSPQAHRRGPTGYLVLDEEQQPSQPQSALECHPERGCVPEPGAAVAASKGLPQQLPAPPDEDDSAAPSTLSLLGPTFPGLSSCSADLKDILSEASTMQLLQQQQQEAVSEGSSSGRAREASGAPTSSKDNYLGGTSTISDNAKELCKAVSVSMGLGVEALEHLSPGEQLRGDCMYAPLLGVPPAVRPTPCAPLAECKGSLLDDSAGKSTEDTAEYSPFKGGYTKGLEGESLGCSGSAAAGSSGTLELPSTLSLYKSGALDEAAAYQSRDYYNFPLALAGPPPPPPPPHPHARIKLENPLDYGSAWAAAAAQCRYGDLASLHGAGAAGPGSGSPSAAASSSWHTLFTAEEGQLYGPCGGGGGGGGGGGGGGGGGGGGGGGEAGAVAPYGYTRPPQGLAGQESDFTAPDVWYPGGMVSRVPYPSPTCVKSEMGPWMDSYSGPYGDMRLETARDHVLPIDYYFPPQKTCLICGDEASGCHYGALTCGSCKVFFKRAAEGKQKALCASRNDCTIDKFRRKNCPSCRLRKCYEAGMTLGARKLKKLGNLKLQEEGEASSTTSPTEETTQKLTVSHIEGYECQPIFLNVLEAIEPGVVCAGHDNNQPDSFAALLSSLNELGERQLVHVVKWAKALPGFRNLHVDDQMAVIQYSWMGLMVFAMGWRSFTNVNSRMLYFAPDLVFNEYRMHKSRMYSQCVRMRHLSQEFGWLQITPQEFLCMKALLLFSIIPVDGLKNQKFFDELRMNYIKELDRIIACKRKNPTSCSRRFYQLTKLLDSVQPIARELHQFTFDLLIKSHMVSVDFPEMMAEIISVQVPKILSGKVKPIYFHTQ
SMILES,toxicity / induction of apoptosis (PARP cleavage) (PARP),IC50 (AR Y594A mutant) [nM],inhibition of AR-V7Y594D transcriptional activity (AR-V7Y594D),"inhibition at 3 µM (androgen receptor (AR); LNCaP, read-out: % Inhibition (3 μM)) [%]","IC50 (androgen receptor (AR); eGFP IC50 (μM), Series 1) [µM]",IC50 (androgen receptor (AR); [1]) [µM],dsDNA dissociation from AR-DBD (AR-DBD+hinge / ARE dsDNA),rate of dsDNA association with AR-DBD (AR-DBD+hinge / ARE dsDNA),fold improved activities compared to compound 6 (14228) (androgen receptor (AR)) [fold]
"c1ccc(-c2csc(N3CCOCC3)n2)cc1 [Compound 14228, 4-(4-phenylthiazol-2-yl)morpholine]",little or no toxicity,3000 to 6000,could not be inhibited,110,0.33,0.274,relatively unchanged,significantly slower rate of dsDNA binding,–
Brc1ncn(-c2csc(N3CCOCC3)n2)c1Br [Compound 14449],little or no toxicity,3000 to 6000,could not be inhibited,–,0.1,0.12 ± 0.01,relatively unchanged,significantly slower rate of dsDNA binding,2
